SMILES | flash point
CC#CCCCC [2-heptyne] | 8 °C

Remark: another data set of the same source

SMILES | flash point
C=CC(C)CCC (stereo unspecified) [3-methyl-1-hexene] | -18 °C
C1CCC(C2CCCCC2)CC1 [bicyclohexyl] | 92 °C
CCCC(C)CCC [4-methylheptane] | 5 °C
C=CCC(C)CCC (stereo unspecified) [4-methyl-1-heptene] | 2 °C
C=C(CC)CC [2-ethyl-1-butene] | -26 °C
CCCCc1ccccc1 [n-butylbenzene] | 50 °C
C1=CC2CCC1C2 [2-norbornene] | -14 °C
CCCCCCC(C)C [2-methyloctane] | 24 °C
CCC(C)CCC(C)C (stereo unspecified) [2,5-dimethylheptane] | 15 °C
CCC(C(C)C)C(C)C [3-ethyl-2,4-dimethylpentane] | 15 °C
CCCCCC1CCCCC1 [n-pentylcyclohexane] | 66 °C
CCCCC1CCCC1 [n-butylcyclopentane] | 35 °C
CC1(C)CCCCC1 [1,1-dimethylcyclohexane] | 7 °C
C=CC(CC)CCC (stereo unspecified) [3-ethyl-1-hexene] | 1 °C
C=C(C)CC [2-methyl-1-butene] | -47 °C
CC#CCCCC [2-heptyne] | 2 °C
CC=C(CC)CC [3-ethyl-2-pentene] | -6 °C
CCCCCCC(C)(C)C [2,2-dimethyloctane] | 31 °C

SMILES | flash point
CC/C=C\CCC [cis-3-heptene] | -9 °C
CCCCC(C)(C)C [2,2-dimethylhexane] | -3 °C
C/C=C/CCC [trans-2-hexene] | -27 °C
CC1=CC(C)CCC1 (stereo unspecified) [1,3-dimethylcyclohexene] | 12 °C
C1CC[C@H]2CCCC[C@H]2C1 [cis-decalin] | 58 °C
CCC(C)(C)C(C)(C)C [2,2,3,3-tetramethylpentane] | 16 °C
C=CC(CC)CC [3-ethyl-1-pentene] | -17 °C
CCCC1CCCC1 [propylcyclopentane] | 16 °C
C=CCC1CCCCC1 [allylcyclohexane] | 29 °C
C[C@@H]1CCC[C@H](C)C1 [cis-1,3-dimethylcyclohexane] | 6 °C
C/C=C\C(C)C [cis-4-methyl-2-pentene] | -36 °C
CCCC(CCC)CCC [4-propylheptane] | 41 °C
Cc1cc(C)c(C)c(C)c1 [1,2,3,5-tetramethylbenzene] | 63 °C
CC(C)C1CCCC1 [isopropylcyclopentane] | 14 °C
C/C=C\CCCC [cis-2-heptene] | -8 °C
CC/C=C/CC [trans-3-hexene] | -25 °C
CCCCCC(C)C(C)C (stereo unspecified) [2,3-dimethyloctane] | 36 °C
C[C@@H]1CCCC[C@H]1C (relative stereo) [trans-1,2-dimethylcyclohexane] | 7 °C

Remark: another data set of the same source

SMILES | flash point
CCCCCCCC(C)(C)Cl [2-Chloro-2-methylnonane] | 72.2 °C
CCCCC(Cl)CCCC [5-Chlorononane] | 65.2 °C
CC(C)(C)CC(C)(C)Cl [2-Chloro-2,4,4-trimethylpentane] | 38.4 °C
CCC(Cl)(CC)CC [3-Chloro-3-ethylpentane] | 33.6 °C
CCC[C@H](Cl)CCCC(C)C [(S)-6-Chloro-2-methylnonane] | 73.8 °C
CCCCCCCCCl [1-Chlorooctane] | 61.1 °C
CCC(C)CCCl (stereo unspecified) [1-Chloro-3-methylpentane] | 25.1 °C
CCCCCCC(C)(Cl)CC (stereo unspecified) [3-Chloro-3-methylnonane] | 72.2 °C
CCCCCCCCC(Cl)CCCC (stereo unspecified) [5-Chlorotridecane] | 110.1 °C
CCCC(C)CCl (stereo unspecified) [1-Chloro-2-methylpentane] | 25.1 °C
CCCCC(C)Cl (stereo unspecified) [2-Chlorohexane] | 25.1 °C
CCCCC(C)(Cl)CC (stereo unspecified) [3-Chloro-3-methylheptane] | 47.2 °C
CCCC(C)(Cl)C(C)C (stereo unspecified) [3-Chloro-2,3-dimethylhexane] | 43.6 °C
CCCCCCCCl [1-Chloroheptane] | 41.8 °C
CCCCCC(C)(C)Cl [2-Chloro-2-methylheptane] | 47.2 °C
CCC(C)C(C)(C)Cl (stereo unspecified) [2-Chloro-2,3-dimethylpentane] | 29.8 °C
CCCCCCCC(C)Cl (stereo unspecified) [2-Chlorononane] | 65.2 °C
CCCC(C)CCCl (stereo unspecified) [1-Chloro-3-methylhexane] | 39.2 °C
CCC(C)CCl (stereo unspecified) [1-Chloro-2-methylbutane] | 10 °C
CCC(C)(C)CCl [1-Chloro-2,2-dimethylbutane] | 19.1 °C
CCCCC(Cl)CC (stereo unspecified) [3-Chloroheptane] | 39.2 °C
CCCC(C)(Cl)C(C)(C)C (stereo unspecified) [3-Chloro-2,2,3-trimethylhexane] | 51.7 °C
CCCC(Cl)CC (stereo unspecified) [3-Chlorohexane] | 25.1 °C
CCC(C)(Cl)CC [3-Chloro-3-methylpentane] | 9.5 °C
CCCCCCCCCCCCCCCCCl [1-Chlorohexadecane] | 138.2 °C
CCCCCCCCC(C)Cl (stereo unspecified) [2-Chlorodecane] | 77.1 °C
CCCC(C)(C)Cl [2-Chloro-2-methylpentane] | 21 °C
CCC(CC)CCl [3-(Chloromethyl)pentane] | 25.1 °C
CCCCCCCl [1-Chlorohexane] | 26.8 °C
CCCCCCCCCCCCl [1-Chloroundecane] | 94.5 °C

Remark: another data set of the same source

SMILES | flash point
C=C(CC)CC [2-ethyl-1-butene] | -20 °C
CCCCc1ccccc1 [n-butylbenzene] | 59 °C
C1=CC2CCC1C2 [2-norbornene] | -15 °C
C=C(C)CC [2-methyl-1-butene] | -34 °C
C/C=C/CCC [trans-2-hexene] | -20 °C
C[C@@H]1CCC[C@H](C)C1 [cis-1,3-dimethylcyclohexane] | 5 °C
C[C@@H]1CCCC[C@H]1C (relative stereo) [trans-1,2-dimethylcyclohexane] | 6 °C

Remark: another data set of the same source

SMILES | flash point
CCC(C)CC(C)C (stereo unspecified) [2,4-Dimethylhexane] | 10 °C
CCCCC(C)(C)C [2,2-Dimethylhexane] | -4 °C
CCC(C)CC(CC)CC (stereo unspecified) [3-Ethyl-5-methylheptane] | 31 °C
CCC(C)CC(C)(C)C (stereo unspecified) [2,2,4-Trimethylhexane] | 15 °C
CCCCCC(C)CC (stereo unspecified) [3-Methyloctane] | 24 °C
CCC(C)C(CC)CC (stereo unspecified) [3-Ethyl-4-methylhexane] | 15 °C
CC(CC(C)(C)C)CC(C)(C)CC(C)(C)C (stereo unspecified) [2,2,4,4,6,8,8-Heptamethylnonane] | 95 °C
CCCC(C)CC (stereo unspecified) [3-Methylhexane] | -15 °C
CCC(C)(C)C(C)C(C)C (stereo unspecified) [2,3,4,4-Tetramethylhexane] | 31 °C
CCC(C)CC [3-Methylpentane] | -32 °C
CC(C)C(C)C(C)C [2,3,4-Trimethylpentane] | -0 °C
CC(C)C(C)C(C)C(C)C (stereo unspecified) [2,3,4,5-Tetramethylhexane] | 31 °C
CCCC(C)C [2-Methylpentane] | -23 °C
CC(C)CC(C)CC(C)C [2,4,6-Trimethylheptane] | 31 °C
CC(C)CCCCC(C)C [2,7-Dimethyloctane] | 41 °C
CCCCC(C)C(C)C (stereo unspecified) [2,3-Dimethylheptane] | 15 °C
CCCC(C)(C)C [2,2-Dimethylpentane] | -23 °C
CCC(C)C(C)C(C)(C)C (stereo unspecified) [2,2,3,4-Tetramethylhexane] | 31 °C
CCC(C)C(C)(C)C (stereo unspecified) [2,2,3-Trimethylpentane] | -3 °C

SMILES | flash point
CCC(CC)C(C)(C)C [3-Ethyl-2,2-dimethylpentane] | 13 °C
CCC(C)(C)C(C)(C)CC [3,3,4,4-Tetramethylhexane] | 31 °C
CCCC(C)(C)CC [3,3-Dimethylhexane] | -1 °C
CCCCCC(C)C(C)C (stereo unspecified) [2,3-Dimethyloctane] | 41 °C
CCCCCC(C)(C)C [2,2-Dimethylheptane] | 24 °C
CCC(C)(C)CC(C)C [2,4,4-Trimethylhexane] | 15 °C
CCC(C)(CC)CC [3-Methyl-3-ethylpentane] | 3 °C
CC(C)(C)C [2,2-Dimethylpropane] | -65 °C
CCC(C)(C)CC(C)(C)C [2,2,4,4-Tetramethylhexane] | 31 °C
CCCC(C)CC(C)CC (stereo unspecified) [3,5-Dimethyloctane] | 41 °C
CCCC(C)CC(C)C (stereo unspecified) [2,4-Dimethylheptane] | 15 °C
CCC(C)C(C)CC (stereo unspecified) [3,4-Dimethylhexane] | 4 °C
CCCC(C)(C)CCC [4,4-Dimethylheptane] | 15 °C
CCCC(C)(C)C(C)C [2,3,3-Trimethylhexane] | 15 °C
CCCCC(C)(CC)CC [3-Ethyl-3-methylheptane] | 41 °C
CCCC(CC)CCC [4-Ethylheptane] | 15 °C
CCC(C)CC(C)CC (stereo unspecified) [3,5-Dimethylheptane] | 15 °C
CCCCCC(C)(C)CC [3,3-Dimethyloctane] | 41 °C

Remark: another data set of the same source

SMILES | flash point
C[Si](C)(C)O[Si](C)(C)O[Si](C)(C)O[Si](C)(C)C [Decamethyltetrasiloxane] | 62.00 °C
C[SiH](C)Cl [Dimethylchlorosilane] | -28.00 °C
C[Si]1(C)CCCCO1 [1,1-Dimethyl-1-sila-2-oxacyclohexane] | 14.00 °C
CC[Si](OC)(OC)OC [Ethyltrimethoxysilane] | 27.00 °C
C=C(CCl)C[Si](C)(C)C [2-Chloromethyl-3-trimethylsilyl-1-propene] | 43.00 °C
C[SiH](C)c1c(F)c(F)c(F)c(F)c1F [Dimethyl(pentafluorophenyl) silane] | 40.00 °C
CCCC[Si](Cl)(Cl)Cl [n-Butyltrichlorosilane] | 54.00 °C
CC[Si](Cl)(Cl)Cl [Ethyltrichlorosilane] | -10.00 °C
C=C[Si](C)(C)C=C [Divinyldimethylsilane] | 8.00 °C
CC[SiH2]CC [Diethylsilane] | -20.00 °C

Source: a flash point compilation (Sun et al. 2020)
